Values quoted from earlier work in PMC10817097, “Caffeic Acid Phosphanium Derivatives: Potential Selective Antitumor, Antimicrobial and Antiprotozoal Agents” (International Journal of Molecular Sciences, 2024).

What was measured:
Design in all cases: method as in PMID 36771693
[1] = test system: Jurkat (human leukemic T cell lymphoma); conditions: standard; cited from earlier work
[2] = test system: MDA-MB-231 (human mammary gland adenocarcinoma); conditions: MDA-MB-231, standard; cited from earlier work
[3] = test system: MCF-7 (human breast adenocarcinoma); conditions: MCF-7, standard; cited from earlier work
[4] = test system: MCF-10A cell line (human mammary gland epithelial cells); conditions: MCF-10A control cells, standard; cited from earlier work
[5] = test system: HeLa (human cervical adenocarcinoma); conditions: standard; cited from earlier work
[6] = test system: PANC-1 (human pancreatic adenocarcinoma); conditions: PANC-1, standard; cited from earlier work
[7] = test system: A2058 (human metastatic melanoma); conditions: A2058, standard; cited from earlier work
[8] = test system: HCT116 (human colorectal adenocarcinoma); conditions: HCT116, standard; cited from earlier work
[9] = test system: NIH 3T3 (murine fibroblasts); conditions: NIH 3T3 control cells, standard; cited from earlier work

N.N.[Cl][Pt][Cl] [CisPt, cisplatin]
IC50 [1]: 6.3 µM | IC50 [2]: 7.1 µM | IC50 [3]: 29.7 µM | IC50 [4]: 25.9 µM | IC50 [5]: 35.4 µM | IC50 [6]: 16.5 µM | IC50 [7]: 21.5 µM | IC50 [8]: 7.4 µM | IC50 [9]: 40.6 µM
